Laboratory results as given in ChEMBL document CHEMBL4834440, “2,2,2-trifluoro-1-(1,4,5,6-tetrahydropyridin-3-yl)ethanone derivative as efflux pump inhibitor in Mycobacterium tuberculosis” (Bioorg Med Chem Lett, 2021).
Converted amounts (≈) assume the structure as drawn.

How the values were obtained:
[1] = test system: Mycobacterium tuberculosis; experiment: Antimycobacterial activity against Mycobacterium tuberculosis H37Rv assessed as inhibition of bacterial growth measured by Resazurin microtitre assay; assay type: functional
[2] = test system: Mycobacterium tuberculosis; experiment: Antimycobacterial activity against Mycobacterium tuberculosis H37Rv assessed as inhibition of bacterial growth at 100 ug/ml measured after 24 hrs relative to control; assay type: functional
[3] = test system: Mycobacterium tuberculosis; experiment: Antimycobacterial activity against Mycobacterium tuberculosis H37Rv assessed as inhibition of bacterial growth at 100 ug/ml measured after 3 days relative to control; assay type: functional; settings: 72 h, time 3 day
[4] = test system: Mycobacterium tuberculosis; experiment: Antimycobacterial activity against Mycobacterium tuberculosis H37Rv assessed as inhibition of bacterial growth at 100 ug/ml measured after 9 days relative to control; assay type: functional; settings: 216 h, time 9 day
[5] = test system: Mycobacterium tuberculosis; experiment: Antimycobacterial activity against Mycobacterium tuberculosis H37Rv under starvation condition assessed as inhibition of bacterial growth at 6.25 ug/ml measured after 9 days relative to control; assay type: functional; settings: 216 h, time 9 day
[6] = test system: Mycobacterium tuberculosis; experiment: Antimycobacterial activity against Mycobacterium tuberculosis H37Rv under starvation condition assessed as inhibition of bacterial growth at 25 ug/ml measured after 3 days relative to control; assay type: functional; settings: 72 h, time 3 day
[7] = test system: Mycobacterium tuberculosis; experiment: Antimycobacterial activity against Mycobacterium tuberculosis H37Rv under starvation condition assessed as inhibition of bacterial growth at 25 ug/ml measured after 9 days relative to control; assay type: functional; settings: 216 h, time 9 day
[8] = test system: Mycobacterium tuberculosis; experiment: Antimycobacterial activity against Mycobacterium tuberculosis H37Rv under starvation condition assessed as inhibition of bacterial growth at 100 ug/ml measured after 1 day relative to control; assay type: functional; settings: 24 h
[9] = test system: Mycobacterium tuberculosis; experiment: Antimycobacterial activity against Mycobacterium tuberculosis H37Rv under starvation condition assessed as inhibition of bacterial growth at 100 ug/ml measured after 3 days relative to control; assay type: functional; settings: 72 h, time 3 day
[10] = test system: Mycobacterium tuberculosis; experiment: Antimycobacterial activity against Mycobacterium tuberculosis H37Rv under starvation condition assessed as inhibition of bacterial growth at 100 ug/ml measured after 9 days relative to control; assay type: functional; settings: 216 h, time 9 day
Vero = experiment: Cytotoxicity against African green monkey Vero cells assessed as cell viability measured after 24 hrs; assay type: cell-based; settings: Chlorocebus sabaeus
[11] = Cytotoxicity against African green monkey Vero cells assessed as cell viability at 100 ug/ml measured after 24 hrs relative to control; assay type: cell-based; settings: chlorocebus sabaeus, at 100 µg/mL, read-out: Activity
[12] = Selectivity index, ratio of IC50 for African green monkey Vero cells to MIC for antimycobacterial activity against Mycobacterium tuberculosis FURG-2; assay type: toxicity; settings: read-out: Selectivity Index
[13] = test system: Mycobacterium tuberculosis; experiment: Antimycobacterial activity against Mycobacterium tuberculosis H37Rv under starvation condition assessed as inhibition of bacterial growth at 25 ug/ml measured after 1 day relative to control; assay type: functional; settings: 24 h
[14] = test system: Mycobacterium tuberculosis; experiment: Antimycobacterial activity against Mycobacterium tuberculosis H37Rv under starvation condition assessed as inhibition of bacterial growth at 6.25 ug/ml measured after 1 day relative to control; assay type: functional; settings: 24 h
[15] = test system: Mycobacterium tuberculosis; experiment: Antimycobacterial activity against Mycobacterium tuberculosis H37Rv under starvation condition assessed as inhibition of bacterial growth at 6.25 ug/ml measured after 3 days relative to control; assay type: functional; settings: 72 h, time 3 day

Row | Structure (SMILES) | MIC [1] [µg/mL] | inhibition at 100 µg/mL [2] [%] | inhibition at 100 µg/mL [3] [%] | inhibition at 100 µg/mL [4] [%] | inhibition at 6.25 µg/mL [5] [%] | inhibition at 25 µg/mL [6] [%] | inhibition at 25 µg/mL [7] [%] | inhibition at 100 µg/mL [8] [%] | inhibition at 100 µg/mL [9] [%] | inhibition at 100 µg/mL [10] [%] | IC50 (Vero) [µg/mL] | viability at 24 h, 100 ug/ml [11] [%] | selectivity ratio [12] | inhibition at 25 µg/mL [13] [%] | inhibition at 6.25 µg/mL [14] [%] | inhibition at 6.25 µg/mL [15] [%]
1 | O=C(C1=CN(CCc2ccccc2)C(NCCc2ccccc2)CC1)C(F)(F)F (configuration not stated) | 25 (≈ 62.1 µM) | 89.5 | 99.9 | 100 | 100 | 99.5 | 100 | 97.5 | 99.9 | 100 | 140 (≈ 347 µM) | 80 | > 10 | 0 | 0 | 0
2 | CO[C@H]1/C=C/O[C@@]2(C)Oc3c(C)c(O)c4c(O)c(c(/C=N/N5CCN(C)CC5)c(O)c4c3C2=O)NC(=O)/C(C)=C\C=C\[C@H](C)[C@H](O)[C@@H](C)[C@@H](O)[C@@H](C)[C@H](OC(C)=O)[C@@H]1C [RIFAMPIN] | 256 (≈ 311 µM) |  |  |  |  |  |  |  |  |  |  |  |  |  |  | 
